Converted amounts (≈) assume the structure as drawn. “Also recorded” adds a separate entry of the source.
Columns and labels:
[1] = Metabolic stability in human liver microsomes with NADPH generating system; format: in vitro ADME; conditions: for Substrate remaining (%) / Substrate loss (%) / microsomal CLint at 1 uM / half-life at 1 uM: 1 μM substrate; for microsomal CLint at 1 uM: read-out: Estimated in vitro intrinsic clearance (μL/min/mg protein); for half-life at 1 uM: read-out: Half-life estimated from single exponential decay; for Metabolic stability (in words): substrate in the presence of human liver microsomes
Procedure: The compound of Formula I (Compound 10) (1 uM) and ivacaftor (1 uM) were incubated with human liver microsomes (1 mg/mL protein/mL) in the presence of NADPH generating system (NADP (1 mM, ph7, glucose-6-phosphate (5 mM ph 7.4) and glucose-6-phosphate dehydrogenase (1 Unit/mL) for 0, 30, 60, and 120 minutes. Remaining substrate was measured by LC-MS/MS. Concentration of the test article was converted to percent drug remaining relative to the concentration of the test article at Time Zero.

[2] = Solubility by nephelometry (turbidity) in HEPES-buffered physiological saline with 0.3% DMSO; format: physicochemical; conditions: HB-PS with 0.3% DMSO; for solubility: HEPES-buffered physiological saline with 0.3% DMSO, aqueous buffer, kinetic from dmso stock, interpolated from solubility and turbidity plots, read-out: Solubility limit
Procedure: Solubility of the compound of Formula I (Compound 10) and ivacaftor was evaluated in HEPES-buffered physiological saline solution (HB-PS) with 0.3% DMSO. Solubility was measured as absence of turbidity using microparticualtes light-scattering technology in nephelometer and output expressed as nephelometry turbidity units (NTU). The HEPES buffer with 0.3% DMSO was the media used for the Ussing Chamber assays as described below. Concentrations of Compound 10 and ivacaftor tested in duplicate were 0, 0.01, 0.03, 0.1, 0.3, 1, 3, 10, 30 μM. The NIST traceable reference standard at 0, 0.2, 0.6 and 1 NTU were measured in duplicate as a reference standard for turbidity. The NTU values were plotted against the concentrations of Compound 10 and ivacaftor.

F508del CFTR = target: T1, F508del CFTR (Homo sapiens, UniProt P13569, DEL508-508); test: CFTR potentiator activity, Ussing chamber assay in primary bronchial epithelia (CFhBE); format: cell-based
T1 construct: human primary bronchial epithelia obtained from donors with the homozygous F508del CFTR missense mutation (CFhBE); endogenous in cells; host or cells: human primary bronchial epithelial cells (CFhBE) from donors homozygous for F508del
T1 sequence (P13569 with tags, fused parts or gaps DEL508-508): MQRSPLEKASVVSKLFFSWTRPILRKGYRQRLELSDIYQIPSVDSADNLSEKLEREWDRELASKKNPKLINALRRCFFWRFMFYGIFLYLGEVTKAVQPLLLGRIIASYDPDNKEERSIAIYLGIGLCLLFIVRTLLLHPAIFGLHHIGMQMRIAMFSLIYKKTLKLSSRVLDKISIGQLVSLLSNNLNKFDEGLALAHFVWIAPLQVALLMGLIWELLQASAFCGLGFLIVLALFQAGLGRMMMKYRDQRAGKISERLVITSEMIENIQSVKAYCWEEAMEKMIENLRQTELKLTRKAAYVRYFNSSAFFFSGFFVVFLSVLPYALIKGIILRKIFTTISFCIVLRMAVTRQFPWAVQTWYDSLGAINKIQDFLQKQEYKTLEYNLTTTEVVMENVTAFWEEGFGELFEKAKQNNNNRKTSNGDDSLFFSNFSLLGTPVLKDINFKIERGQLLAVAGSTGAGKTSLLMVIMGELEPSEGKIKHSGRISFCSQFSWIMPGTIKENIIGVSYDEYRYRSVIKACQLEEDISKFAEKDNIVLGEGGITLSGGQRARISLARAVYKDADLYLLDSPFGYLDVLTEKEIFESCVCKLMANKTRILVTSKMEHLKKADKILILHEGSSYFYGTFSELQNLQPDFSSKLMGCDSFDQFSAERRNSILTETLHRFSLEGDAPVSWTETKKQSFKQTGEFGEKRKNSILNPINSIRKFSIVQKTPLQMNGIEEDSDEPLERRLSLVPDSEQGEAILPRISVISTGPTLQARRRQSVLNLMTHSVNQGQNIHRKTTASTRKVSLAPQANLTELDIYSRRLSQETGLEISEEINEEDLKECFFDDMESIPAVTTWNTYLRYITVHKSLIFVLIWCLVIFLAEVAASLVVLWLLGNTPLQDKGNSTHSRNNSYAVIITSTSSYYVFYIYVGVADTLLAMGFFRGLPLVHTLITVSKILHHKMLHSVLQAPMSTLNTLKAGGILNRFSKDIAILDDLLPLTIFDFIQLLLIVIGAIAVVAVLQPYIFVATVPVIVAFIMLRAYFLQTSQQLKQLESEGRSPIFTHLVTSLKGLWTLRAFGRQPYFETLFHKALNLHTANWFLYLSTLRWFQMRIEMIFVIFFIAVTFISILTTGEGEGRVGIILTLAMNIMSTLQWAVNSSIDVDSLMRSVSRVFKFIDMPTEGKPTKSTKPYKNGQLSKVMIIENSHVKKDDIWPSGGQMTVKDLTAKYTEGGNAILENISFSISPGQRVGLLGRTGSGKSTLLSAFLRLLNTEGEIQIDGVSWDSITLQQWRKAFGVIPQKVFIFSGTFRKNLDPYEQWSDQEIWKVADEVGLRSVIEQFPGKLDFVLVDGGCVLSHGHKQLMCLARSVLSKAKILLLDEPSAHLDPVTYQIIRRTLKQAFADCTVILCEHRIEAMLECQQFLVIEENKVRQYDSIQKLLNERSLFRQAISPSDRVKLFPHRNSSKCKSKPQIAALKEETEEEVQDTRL
Procedure: Chloride ion channel potentiator activity of the compound of Formula I (Compound 10) and ivacaftor was evaluated in monlayer cultures of human primary bronchial epithelia obtained from donors with the homozygous F508del CFTR missense mutation (CFhBE) using Ussing assay technology.
The Ussing chamber assay is a well-established method for measurement of transport across epithelia of a wide variety of transport substrates (Clark, American Journal of Physiology.Gastrointestinal and liver Physiology, 2009, 296, G1151-1166). The Ussing half-chambers permit both apical and basolateral surfaces of an epithelium to be exposed to identical solutions, eliminating the chemical concentration gradient for movement of molecules across the epithelium. Under these symmetric solution conditions, the epithelium generates a transepithelial potential by activity of ion selective channels and active transport processes asymmetrically distributed in apical and basolateral membranes. The epithelium is maintained at a potential difference of 0 mV. The negative feedback circuit used for controlling the potential difference at 0 mV is called a voltage clamp circuit. Any current generated by the voltage clamp to maintain the transepithelial potential at 0 mV can arise only from biological active transport processes in the epithelial cells and the current (called short circuit current (ISC)) is a direct measure of these processes. Efflux of chloride to the apical surface is enabled by opening of apical CFTR channels, which allows water to move to the cellular surface and keep the tissue hydrated.

[3] = human liver microsomes, 120 min

Substrate remaining (%) ([1]; human liver microsomes, 0 min) | Substrate loss (%) ([1]; human liver microsomes, 30 min) | Substrate remaining (%) ([1]; human liver microsomes, 30 min) | Substrate loss (%) ([1]; human liver microsomes, 60 min) | Substrate remaining (%) ([1]; human liver microsomes, 60 min) | Substrate loss (%) [1, 3] | Substrate remaining (%) [1, 3] [%] | microsomal CLint at 1 uM ([1]; human liver microsomes) [µL/min/mg] | half-life at 1 uM ([1]; human liver microsomes) [min] | Fraction metabolized ([1]; incubated with human liver microsomes (text summary of Table 1)) [%] | solubility [2] [µM] | Potency relative to ivacaftor (times more potent) (F508del CFTR; based on solubility difference between the compound and ivacaftor) | Metabolic stability (in words) [1] | Metabolic stability (in words) ([1]; listed as compound represented by Formula I) | Solubility relative to ivacaftor (times less soluble) [2] [times] | Compound | Potentiator response (in words) (F508del CFTR; homozygous F508del CFhBE monolayers, short circuit current, FIGS. 2A and 2B) | Duration/stability of potentiator response (in words) (F508del CFTR; homozygous F508del CFhBE, FIGS. 2A and 2B) | Metabolism back to ivacaftor or ivacaftor metabolites (in words) ([1]; human liver microsomes)
100 | 30.4% | 69.6 | 49.1% | 50.9 | 69.5% | 30.5 | 10.6 | 65.4 | ~70 | 7.86 (≈ 3.09 µg/mL) | – | – | – | – | CC(C)(C)c1cc(C(C)(C)C)c(NC(=O)c2c[nH]c3ccccc3c2=O)cc1O [ivacaftor, reference compound] | – | – | –
100 | No loss | 108 | No loss | 107 | No loss | 120 | < 5.78 | > 120 | – | 0.137 | at least 15 times | metabolically stable | chemically and metabolically stable | 57.4 | CC(C)(C)c1cc(C(C)(C)C)c(OCCOc2cc(NC(=O)c3c[nH]c4ccccc4c3=O)c(C(C)(C)C)cc2C(C)(C)C)cc1NC(=O)c1c[nH]c2ccccc2c1=O [Compound of Formula I, N,N′-((ethane-1,2-diylbis(oxy))bis(2,4-di-tert-butyl-5,1-phenylene))bis(4-oxo-1,4-dihydroquinoline-3-carboxamide)] | potentiator response is similar to ivacaftor; also recorded: potentiated F508del CFTR | appears to remain stable longer than ivacftor | not to substantially metabolize to ivacaftor, hydroxymethyl-ivacaftor or ivacaftor-carboxylate; also recorded: does not revert back to ivacaftor

Reference: patent publication US11236067B2, “Compound for treating cystic fibrosis” (ORPHOMED, INC., priority 2019, dated 2022)
